# Source: ChEMBL document CHEMBL1201862, “PubChem BioAssay data set” (2004)
#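 Following 48 hours of exposure in 96-well plates, responses at five concentrations were used to interpolate endpoints linearly. Here, GI50 denotes the concentration required for 50% inhibition of growth.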 The source made the active and inactive calls. Rule as the data show it: active = GI50 up to about 1.1 µM and inactive = higher.
# How the values were obtained:
# Test in all cases: NCI tumour cell line growth inhibition, 48 h
# [1] = test system: 786-0
# [2] = test system: A498
# [3] = test system: A549
# [4] = test system: ACHN
# [5] = test system: CAKI-1
# [6] = test system: CCRF-CEM
# [7] = test system: COLO 205
# [8] = test system: DU-145
# [9] = test system: EKVX
# [10] = test system: HCC 2998
# [11] = test system: HCT-116
# [12] = test system: HCT-15
# [13] = test system: HL-60
# [14] = test system: HOP-62
# [15] = test system: HOP-92
# [16] = test system: HT-29
# [17] = test system: IGROV-1
# [18] = test system: K562
# [19] = test system: KM12
# [20] = test system: LOX IMVI
# [21] = test system: M14
# [22] = test system: MCF7
# [23] = test system: MDA-MB-231
# [24] = test system: MDA-MB-435
# [25] = test system: MDA-N
# [26] = test system: MOLT-4
# [27] = test system: Malme-3M
# [28] = test system: NCI-H226
# [29] = test system: NCI-H23
# [30] = test system: NCI-H460
# [31] = test system: NCI-H522
# [32] = test system: NCI/ADR-RES
# [33] = test system: OVCAR-3
# [34] = test system: OVCAR-4
# [35] = test system: OVCAR-5
# [36] = test system: OVCAR-8
# [37] = test system: PC-3
# [38] = test system: RPMI-8226
# [39] = test system: RXF 393
# [40] = test system: SF-268
# [41] = test system: SF-295
# [42] = test system: SF-539
# [43] = test system: SK-MEL-28
# [44] = test system: SK-MEL-2
# [45] = test system: SK-MEL-5
# [46] = test system: SK-OV-3
# [47] = test system: SN12C
# [48] = test system: SNB-19
# [49] = test system: SNB-75
# [50] = test system: SR
# [51] = test system: SW-620
# [52] = test system: T47D
# [53] = test system: TK-10
# [54] = test system: U-251
# [55] = test system: UACC-257
# [56] = test system: UACC-62
# [57] = test system: UO-31
# [58] = test system: Hs-578T
compound,measurement,setting,value
COc1cc(OC)c(/C=N\Nc2nc3ccccc3c(=O)n2-c2ccccc2)c(OC)c1,GI50,[1],17.7 µM (inactive)
same,GI50,[2],11.8 µM (inactive)
same,GI50,[3],31.4 µM (inactive)
same,GI50,[4],18.1 µM (inactive)
same,GI50,[5],16 µM (inactive)
same,GI50,[6],14.2 µM (inactive)
same,GI50,[7],45.3 µM (inactive)
same,GI50,[8],31.3 µM (inactive)
same,GI50,[9],26.9 µM (inactive)
same,GI50,[10],39.6 µM (inactive)
same,GI50,[11],20.1 µM (inactive)
same,GI50,[12],37.4 µM
same,GI50,[13],33 µM (inactive)
same,GI50,[14],19.4 µM (inactive)
same,GI50,[15],24.8 µM (inactive)
same,GI50,[16],24.5 µM (inactive)
same,GI50,[17],40.6 µM (inactive)
same,GI50,[18],33 µM (inactive)
same,GI50,[19],> 31.6 µM (inactive)
same,GI50,[20],23.2 µM (inactive)
same,GI50,[21],27.3 µM (inactive)
same,GI50,[22],> 47.1 µM (inactive)
same,GI50,[23],23.8 µM (inactive)
same,GI50,[24],24.5 µM (inactive)
same,GI50,[25],17.4 µM (inactive)
same,GI50,[26],22.9 µM (inactive)
same,GI50,[27],28.1 µM (inactive)
same,GI50,[28],19.4 µM (inactive)
same,GI50,[29],58.5 µM (inactive)
same,GI50,[30],21.7 µM (inactive)
same,GI50,[31],26.6 µM (inactive)
same,GI50,[32],19.9 µM (inactive)
same,GI50,[33],23.6 µM (inactive)
same,GI50,[34],28.8 µM (inactive)
same,GI50,[35],43.9 µM (inactive)
same,GI50,[36],28.7 µM (inactive)
same,GI50,[37],26.3 µM (inactive)
same,GI50,[38],26.4 µM (inactive)
same,GI50,[39],23.7 µM (inactive)
same,GI50,[40],34.9 µM (inactive)
same,GI50,[41],25.6 µM (inactive)
same,GI50,[42],18 µM (inactive)
same,GI50,[43],27.4 µM (inactive)
same,GI50,[44],25.4 µM (inactive)
same,GI50,[45],26.2 µM (inactive)
same,GI50,[46],24.9 µM (inactive)
same,GI50,[47],30.7 µM (inactive)
same,GI50,[48],24 µM (inactive)
same,GI50,[49],24.9 µM (inactive)
same,GI50,[50],36.6 µM (inactive)
same,GI50,[51],31 µM (inactive)
same,GI50,[52],24.6 µM (inactive)
same,GI50,[53],34.1 µM (inactive)
same,GI50,[54],32.1 µM (inactive)
same,GI50,[55],27.5 µM (inactive)
same,GI50,[56],19.5 µM (inactive)
same,GI50,[57],> 48.8 µM (inactive)
COc1ccc(C(=O)/C=C/c2ccc(OCC(=N)N)cc2)cc1OC,GI50,[1],5.04 µM (inactive)
same,GI50,[3],5.97 µM (inactive)
same,GI50,[5],5.05 µM (inactive)
same,GI50,[6],2.61 µM (inactive)
same,GI50,[7],3.34 µM (inactive)
same,GI50,[8],> 10 µM (inactive)
same,GI50,[9],7.36 µM (inactive)
same,GI50,[10],6.4 µM (inactive)
same,GI50,[12],> 10 µM
same,GI50,[13],1.95 µM (inactive)
same,GI50,[14],5.75 µM (inactive)
same,GI50,[16],3.1 µM (inactive)
same,GI50,[17],> 10 µM (inactive)
same,GI50,[18],2.37 µM (inactive)
same,GI50,[19],2.64 µM (inactive)
same,GI50,[20],2.52 µM (inactive)
same,GI50,[21],5.87 µM (inactive)
same,GI50,[22],3.24 µM (inactive)
same,GI50,[23],> 10 µM (inactive)
same,GI50,[25],3.6 µM (inactive)
same,GI50,[27],> 10 µM (inactive)
same,GI50,[29],3.33 µM (inactive)
same,GI50,[36],3.62 µM (inactive)
same,GI50,[37],3.84 µM (inactive)
same,GI50,[38],2.34 µM (inactive)
same,GI50,[39],4.63 µM (inactive)
same,GI50,[40],3.61 µM (inactive)
same,GI50,[41],> 10 µM (inactive)
same,GI50,[43],8.73 µM (inactive)
same,GI50,[45],7.93 µM (inactive)
same,GI50,[46],4.01 µM (inactive)
same,GI50,[47],> 10 µM (inactive)
same,GI50,[49],4.53 µM (inactive)
same,GI50,[50],1.64 µM (inactive)
same,GI50,[51],3.84 µM (inactive)
same,GI50,[52],3.86 µM (inactive)
same,GI50,[53],> 10 µM (inactive)
same,GI50,[55],6.79 µM (inactive)
same,GI50,[56],> 10 µM (inactive)
C[n+]1c(-c2ccc(/C=N/N=C/c3ccc(-c4cn5ccccc5[n+]4C)cc3)cc2)cn2ccccc21,GI50,[1],> 100 µM (inactive)
same,GI50,[3],> 100 µM (inactive)
same,GI50,[4],> 100 µM (inactive)
same,GI50,[6],> 100 µM (inactive)
same,GI50,[7],> 100 µM (inactive)
same,GI50,[9],> 100 µM (inactive)
same,GI50,[10],> 100 µM (inactive)
same,GI50,[11],> 100 µM (inactive)
same,GI50,[12],> 100 µM
same,GI50,[13],> 100 µM (inactive)
same,GI50,[14],> 100 µM (inactive)
same,GI50,[16],> 100 µM (inactive)
same,GI50,[58],> 100 µM (inactive)
same,GI50,[17],> 100 µM (inactive)
same,GI50,[18],> 100 µM (inactive)
same,GI50,[19],> 100 µM (inactive)
same,GI50,[21],> 100 µM (inactive)
same,GI50,[22],> 100 µM (inactive)
same,GI50,[23],> 100 µM (inactive)
same,GI50,[24],> 100 µM (inactive)
same,GI50,[25],> 100 µM (inactive)
same,GI50,[26],> 100 µM (inactive)
same,GI50,[30],> 100 µM (inactive)
same,GI50,[31],> 100 µM (inactive)
same,GI50,[32],> 100 µM (inactive)
same,GI50,[34],> 100 µM (inactive)
same,GI50,[35],> 100 µM (inactive)
same,GI50,[36],> 100 µM (inactive)
same,GI50,[37],> 100 µM (inactive)
same,GI50,[38],> 100 µM (inactive)
same,GI50,[40],> 100 µM (inactive)
same,GI50,[41],> 100 µM (inactive)
same,GI50,[42],> 100 µM (inactive)
same,GI50,[43],> 100 µM (inactive)
same,GI50,[45],> 100 µM (inactive)
same,GI50,[46],> 100 µM (inactive)
same,GI50,[47],> 100 µM (inactive)
same,GI50,[48],> 100 µM (inactive)
same,GI50,[49],> 100 µM (inactive)
same,GI50,[50],> 100 µM (inactive)
same,GI50,[51],> 100 µM (inactive)
same,GI50,[52],> 100 µM (inactive)
same,GI50,[53],> 100 µM (inactive)
same,GI50,[54],> 100 µM (inactive)
same,GI50,[55],> 100 µM (inactive)
same,GI50,[57],> 100 µM (inactive)
OC(c1cc(-c2ccc(C(F)(F)F)cc2)nc(C(F)(F)F)c1)C1CCCCN1 (stereo not given) [ENPIROLINE PHOSPHATE],GI50,[1],1.89 µM (inactive)
same,GI50,[2],2.24 µM (inactive)
same,GI50,[5],5.53 µM (inactive)
same,GI50,[6],1.87 µM (inactive)
same,GI50,[7],1.82 µM (inactive)
same,GI50,[10],1.69 µM (inactive)
same,GI50,[11],2 µM (inactive)
same,GI50,[12],2.18 µM
same,GI50,[13],2.01 µM (inactive)
same,GI50,[16],1.95 µM (inactive)
same,GI50,[17],1.73 µM (inactive)
same,GI50,[19],1.87 µM (inactive)
same,GI50,[20],1.73 µM (inactive)
same,GI50,[21],1.55 µM (inactive)
same,GI50,[22],1.8 µM (inactive)
same,GI50,[24],1.86 µM (inactive)
same,GI50,[25],1.67 µM (inactive)
same,GI50,[26],1.86 µM (inactive)
same,GI50,[27],1.78 µM (inactive)
same,GI50,[30],2.08 µM (inactive)
same,GI50,[31],1.69 µM (inactive)
same,GI50,[32],2.62 µM (inactive)
same,GI50,[34],1.87 µM (inactive)
same,GI50,[37],2.49 µM (inactive)
same,GI50,[38],2.61 µM (inactive)
same,GI50,[39],1.78 µM (inactive)
same,GI50,[44],2.02 µM (inactive)
same,GI50,[46],2.3 µM (inactive)
same,GI50,[50],2.33 µM (inactive)
same,GI50,[51],1.85 µM (inactive)
same,GI50,[54],1.88 µM (inactive)
same,GI50,[55],2.03 µM (inactive)
same,GI50,[56],1.78 µM (inactive)
